{"source": "patent US20260293949A1", "about": "“CARBONATION SENSATION IMPARTING OR ENHANCING AGENT” (TAKASAGO INTERNATIONAL CORPORATION, priority 2022, published 2026)", "key": {"[1]": {"experiment": "Sensory evaluation of fizziness enhancement in carbonated grapefruit flavored Chu-Hi", "assay_type": "in vivo", "conditions": "for Fizziness enhancement evaluation result: carbonated Chu-Hi, average score of seven panelists, 1 to 5"}, "human TRPA1": {"target": "T1, human TRPA1 (Homo sapiens, UniProt O75762)", "T1 construct": "doxycycline-inducible Flp-In T-REx 293 cells; Fluo-4 calcium assay", "T1 sequence (O75762 whole entry)": "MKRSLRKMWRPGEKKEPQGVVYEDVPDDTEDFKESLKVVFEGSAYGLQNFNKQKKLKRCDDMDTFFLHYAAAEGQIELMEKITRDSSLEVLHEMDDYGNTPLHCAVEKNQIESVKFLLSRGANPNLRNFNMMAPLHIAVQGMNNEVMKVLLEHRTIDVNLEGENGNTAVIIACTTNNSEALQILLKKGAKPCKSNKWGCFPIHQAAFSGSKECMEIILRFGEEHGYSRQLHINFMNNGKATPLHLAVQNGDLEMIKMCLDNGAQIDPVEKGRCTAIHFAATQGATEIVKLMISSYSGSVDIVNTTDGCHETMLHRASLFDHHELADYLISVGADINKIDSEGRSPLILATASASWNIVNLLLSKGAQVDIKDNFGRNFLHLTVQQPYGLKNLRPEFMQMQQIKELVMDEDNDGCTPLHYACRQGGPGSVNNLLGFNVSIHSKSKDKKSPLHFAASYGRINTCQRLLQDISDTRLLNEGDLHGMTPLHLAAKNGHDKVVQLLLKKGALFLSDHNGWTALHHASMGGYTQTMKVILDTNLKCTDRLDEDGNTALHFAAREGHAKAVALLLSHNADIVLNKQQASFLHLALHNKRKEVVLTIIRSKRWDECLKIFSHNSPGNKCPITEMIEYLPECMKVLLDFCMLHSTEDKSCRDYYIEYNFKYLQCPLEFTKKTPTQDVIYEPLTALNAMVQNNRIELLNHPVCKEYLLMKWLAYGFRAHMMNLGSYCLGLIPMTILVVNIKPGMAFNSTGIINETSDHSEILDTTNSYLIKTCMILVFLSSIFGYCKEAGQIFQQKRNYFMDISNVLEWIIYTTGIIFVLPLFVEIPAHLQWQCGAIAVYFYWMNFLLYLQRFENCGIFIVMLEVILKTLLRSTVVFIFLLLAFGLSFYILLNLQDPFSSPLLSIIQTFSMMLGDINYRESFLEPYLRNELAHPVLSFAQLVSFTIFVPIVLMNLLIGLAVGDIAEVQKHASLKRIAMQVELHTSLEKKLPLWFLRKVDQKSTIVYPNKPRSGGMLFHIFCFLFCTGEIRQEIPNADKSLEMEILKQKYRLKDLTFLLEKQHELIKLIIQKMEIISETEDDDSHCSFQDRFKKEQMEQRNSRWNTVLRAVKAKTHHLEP", "experiment": "Evaluation of human TRPA1 activity in stably expressing cells (Fluo 4-AM calcium fluorescence)", "assay_type": "cell-based", "conditions": "human TRPA1 stably expressing Flp-In 293 cells; fluorescence 485/525 nm, 27° C.", "excerpt": "(§1) The full-length human TRPA1 gene (GenBank Accession Number: NM_007332) was amplified from plasmid pFN21AB7348 (manufactured by Kazusa DNA Research Institute), and the full-length human TRPV1 gene (GenBank Accession Number: NM_018727) was amplified from pFN21AE2418 (manufactured by Kazusa DNA Research Institute) using PCR. The obtained PCR product was subcloned into pcDNA5/FRT/TO (manufactured by ThermoFisher Scientific), and then introduced into Flp-In 293 cells (manufactured by Thermo Fisher Scientific) using a Flp-In T-REX system (manufactured by Thermo Fisher Scientific) to prepare a human TRPA1 stably expressing cell line and a human TRPV1 stably expressing cell line […]\n(§2) After replacing the culture medium with buffer solution, fluorescent calcium indicator Fluo 4-AM (manufactured by Dojindo Laboratories) was added and incubated at 37° C. for 1 hour. After replacing the culture solution with buffer solution again, the microplate was set to a fluorescence microplate reader FlexStation 3 (manufactured by Molecular Devices, LLC.). Diethyl sebacate was added at various concentrations at an internal temperature of 27° C., and the fluorescence intensity at a wavelength of 525 nm when excited at a wavelength of 485 nm was measured. […]"}, "[2]": {"experiment": "Sensory evaluation of carbonation sensation imparting in cider-flavored frozen dessert", "assay_type": "in vivo", "conditions": "for Carbonation sensation imparting evaluation result: average score of seven panelists, 1 to 5", "procedure": "(§3) In the following Examples, the action and effect were verified using a value obtained by calculating an average score of scores for imparting or enhancing fizziness by sensory evaluation conducted by specialized panelists. The expression “1 point” in the evaluation is the evaluation in the case where no component is added at all (no addition).\nDiethyl sebacate was separately added to a cider-flavored frozen dessert prepared according to the formulation shown in Table 16 so as to reach a concentration shown in Table 17 below, and sensory evaluation was performed by seven panelists to determine the extent to which fizziness was imparted as compared with a control in which diethyl sebacate was not added."}, "human TRPV1": {"target": "T2, human TRPV1 (Homo sapiens, UniProt Q8NER1)", "T2 construct": "doxycycline-inducible Flp-In T-REx 293 cells; Fluo-4 calcium assay", "T2 sequence (Q8NER1 whole entry)": "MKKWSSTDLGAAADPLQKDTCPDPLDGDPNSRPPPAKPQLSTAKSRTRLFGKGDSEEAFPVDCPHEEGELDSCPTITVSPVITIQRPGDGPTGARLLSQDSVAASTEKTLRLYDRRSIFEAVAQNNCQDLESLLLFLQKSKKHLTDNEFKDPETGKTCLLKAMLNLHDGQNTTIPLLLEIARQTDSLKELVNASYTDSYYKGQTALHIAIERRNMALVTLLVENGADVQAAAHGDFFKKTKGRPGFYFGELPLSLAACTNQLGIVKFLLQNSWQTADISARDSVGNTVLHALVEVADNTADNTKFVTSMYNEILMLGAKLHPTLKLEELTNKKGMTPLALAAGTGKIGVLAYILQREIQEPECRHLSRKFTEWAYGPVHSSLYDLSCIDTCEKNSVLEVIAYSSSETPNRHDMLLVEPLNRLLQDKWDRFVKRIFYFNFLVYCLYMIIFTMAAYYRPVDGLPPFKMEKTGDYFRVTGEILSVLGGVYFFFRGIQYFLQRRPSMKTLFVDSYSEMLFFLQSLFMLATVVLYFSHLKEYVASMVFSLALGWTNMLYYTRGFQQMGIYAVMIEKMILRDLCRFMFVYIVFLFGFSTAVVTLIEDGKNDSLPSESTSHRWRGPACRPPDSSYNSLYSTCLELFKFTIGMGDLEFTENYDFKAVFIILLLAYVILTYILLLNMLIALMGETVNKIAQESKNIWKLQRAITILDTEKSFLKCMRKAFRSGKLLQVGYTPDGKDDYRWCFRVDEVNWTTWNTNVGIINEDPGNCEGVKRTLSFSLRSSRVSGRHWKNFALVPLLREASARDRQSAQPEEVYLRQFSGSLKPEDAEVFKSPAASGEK", "experiment": "Evaluation of human TRPV1 activity in stably expressing cells (Fluo 4-AM calcium fluorescence)", "assay_type": "cell-based", "conditions": "human TRPV1 stably expressing Flp-In 293 cells; fluorescence 485/525 nm, 27° C.", "excerpt": "as §1, §2"}, "[3]": {"experiment": "Sensory evaluation of fizziness enhancement in beer-flavored beverage", "assay_type": "in vivo", "conditions": "for Fizziness enhancement evaluation result: beer-flavored beverage, average score of seven panelists, 1 to 5", "procedure": "as §3\nDiethyl sebacate was separately added to “Asahi Dry Zero (registered trademark) (manufactured by Asahi Breweries, Ltd.)” so as to reach the concentrations shown in Table 8 below, and sensory evaluation was performed by seven specialized panelists to determine the extent to which fizziness was enhanced as compared with a control in which diethyl sebacate was not added."}, "[4]": {"conditions": "carbonated grapefruit flavored Chu-Hi"}, "[5]": {"conditions": "carbonated beer-flavored beverage"}}, "note": "Entries after “also recorded” stand apart in the source; their conditions may differ.", "data": [{"smiles": "CCOC(=O)CCCCCCCCC(=O)OCC", "note": "[Diethyl sebacate, diethyl sebacate]", "values": [{"measurement": "Fizziness enhancement evaluation result", "setting": "[1]; 0.1 ppm", "value": 1.1, "unit": "points"}, {"measurement": "Fizziness enhancement evaluation result", "setting": "[1]; 0.3 ppm", "value": 1.7, "unit": "points"}, {"measurement": "Fizziness enhancement evaluation result", "setting": "[1]; 1 ppm", "value": 4.0, "unit": "points"}, {"measurement": "Fizziness enhancement evaluation result", "setting": "[1]; 5 ppm", "value": 4.0, "unit": "points"}, {"measurement": "Fizziness enhancement evaluation result", "setting": "[1]; 10 ppm", "value": 3.9, "unit": "points"}, {"measurement": "Fizziness enhancement evaluation result", "setting": "[1]; 20 ppm", "value": 3.4, "unit": "points"}, {"measurement": "Fizziness enhancement evaluation result", "setting": "[1]; 50 ppm", "value": 2.6, "unit": "points"}, {"measurement": "Fizziness enhancement evaluation result", "setting": "[1]; 100 ppm", "value": 1.3, "unit": "points"}, {"measurement": "amelioration of mouthfeel (in words)", "setting": "[1]; [4]", "value": "effect of ameliorating the mouthfeel was also confirmed"}, {"measurement": "fizziness enhancement (in words)", "setting": "[1]; [4]", "value": "fizziness of the carbonated grapefruit flavored Chu-Hi can be enhanced"}, {"measurement": "TRPA1 activity", "setting": "human TRPA1", "value": "high TRPA1 activity; also recorded: respond"}, {"measurement": "amelioration of mouthfeel (in words)", "setting": "[2]", "value": "effect of ameliorating the mouthfeel was also confirmed"}, {"measurement": "fizziness imparting (in words)", "setting": "[2]", "value": "fizziness can be imparted to the cider-flavored frozen dessert"}, {"measurement": "Carbonation sensation imparting evaluation result", "setting": "[2]; 0.1 ppm", "value": 1.4, "unit": "points"}, {"measurement": "Carbonation sensation imparting evaluation result", "setting": "[2]; 0.3 ppm", "value": 1.9, "unit": "points"}, {"measurement": "Carbonation sensation imparting evaluation result", "setting": "[2]; 1 ppm", "value": 2.1, "unit": "points"}, {"measurement": "Carbonation sensation imparting evaluation result", "setting": "[2]; 5 ppm", "value": 3.6, "unit": "points"}, {"measurement": "Carbonation sensation imparting evaluation result", "setting": "[2]; 10 ppm", "value": 4.5, "unit": "points"}, {"measurement": "Carbonation sensation imparting evaluation result", "setting": "[2]; 20 ppm", "value": 3.6, "unit": "points"}, {"measurement": "Carbonation sensation imparting evaluation result", "setting": "[2]; 50 ppm", "value": 2.7, "unit": "points"}, {"measurement": "Carbonation sensation imparting evaluation result", "setting": "[2]; 100 ppm", "value": 1.4, "unit": "points"}, {"measurement": "TRPV1 activity", "setting": "human TRPV1", "value": "high TRPA1 activity and TRPV1 activity; also recorded: respond"}, {"measurement": "Fizziness enhancement evaluation result", "setting": "[3]; 0.1 ppm", "value": 1.1, "unit": "points"}, {"measurement": "Fizziness enhancement evaluation result", "setting": "[3]; 0.3 ppm", "value": 1.6, "unit": "points"}, {"measurement": "Fizziness enhancement evaluation result", "setting": "[3]; 1 ppm", "value": 2.7, "unit": "points"}, {"measurement": "Fizziness enhancement evaluation result", "setting": "[3]; 5 ppm", "value": 2.9, "unit": "points"}, {"measurement": "Fizziness enhancement evaluation result", "setting": "[3]; 10 ppm", "value": 2.7, "unit": "points"}, {"measurement": "Fizziness enhancement evaluation result", "setting": "[3]; 20 ppm", "value": 2.7, "unit": "points"}, {"measurement": "Fizziness enhancement evaluation result", "setting": "[3]; 50 ppm", "value": 1.9, "unit": "points"}, {"measurement": "Fizziness enhancement evaluation result", "setting": "[3]; 100 ppm", "value": 1.1, "unit": "points"}, {"measurement": "amelioration of mouthfeel (in words)", "setting": "[3]; [5]", "value": "effect of ameliorating the mouthfeel was also confirmed"}, {"measurement": "fizziness enhancement (in words)", "setting": "[3]; [5]", "value": "fizziness of the carbonated beer-flavored beverage can be enhanced"}]}]}
